Laboratory results: patent publication US20240269170A1, “Treatment of Inflammatory Conditions or Diseases” (Queen Mary University of London, priority 2021, published 2024)

Test system: Arg-1
Experiment: Arg-1 expression in bone marrow monocyte-derived macrophages differentiated in vitro, flow cytometry
Assay type: cell-based, mouse
Procedure: (B) Mice were administered K/B×N serum on days 0, 2 and 9 then on day 12 they were treated 2×10^6 PKH67-labelled monocytes isolated from arthritic mice and incubated with either vehicle (PBS+0.1% EtOH) or 1 nM MCTR3 for 90 min via i.v injection. After 10 days joints were harvested, cells were liberated that the expression of Arg-1 was evaluated in PKH67^+CD64^+ cells using flow cytometry. Results are from n=10 mice per group. Statistical differences were evaluated using a Mann-Whitney U test. (C) Inflammatory arthritis was induced in C57BL/6 mice and bone marrow-derived monocytes were isolated and treated as in A and Arg-1 expression was evaluated using flow cytometry. Results are mean±SEM and expressed as percentage change from cells incubated with vehicle alone. n=8 per group from two separate experiments. Statistical differences were evaluated using one-sample Wilcoxon signed rank test. (D) Mice were given K/B×N serum (via i.p. injection) on days 0, 2 and 9. […] On day 22, joints were collected and the expression of Arg-1 in PKH67^+ CD64^+ cells was evaluated using flow cytometry. Results are mean±SEM and expressed as percentage change from vehicle group. n=5 mice per group. Statistics differences were evaluated Mann-Whitney U test. […]

Structure (SMILES)	Arg-1 expression in MDM differentiated in vitro (1 nM MCTR3 for 24 hours on monocytes)	ability of MCTR3 to upregulate Arg-1 in vitro (monocytes incubated with 10 μM RG108 for 45 min before 1 nM MCTR3)
CC/C=C\C/C=C\C[C@H](O)[C@@H](/C=C/C=C/C=C\C/C=C\CCC(=O)O)SC[C@H](N)C(=O)O [MCTR3, 13R-cysteinyl, 14S-hydroxy-4Z, 7Z, 9E, 11E, 13R, 14S, 16Z, 19Z-docosahexaenoic acid]	upregulate	–
O=C(O)C(Cc1c[nH]c2ccccc12)N1C(=O)c2ccccc2C1=O (centres unmarked) [RG108]	–	reversed
